Measurements reported in US20030134901A1, “Lipoxin compounds and their use in treating cell proliferative disorders” (priority 1993, published 2003).

Test system: human skin fibroblasts
Assay: Fibroblast proliferation, MTT assay
Assay type: cell-based
Conditions: Homo sapiens, Skin fibroblast; 100 nM, n=3
From the text: Human type II epithelial A549 cells from human lung carcinoma and normal human skin fibroblast (breast) were obtained from the American Type Culture Collection (Rockville, Md.). The A549 cell line originated from a human alveolar cell carcinoma and was a useful cell line because it was easily assessable and could be maintained in culture without contaminating tissue macrophages. (Lieber, M., et al (1976) A continuous tumor-cell line from a human lung carcinoma with properties of type II alveolar epithelial cells. Int. J Cancer Fibroblasts were utilized within their limited window of viability and their passage numbers were recorded (results are reported for cells from 3-5 passages). Epithelial A549 cells were seeded into T-75 cm^2 tissue culture flasks and maintained in F-12K medium supplemented with 10% heat-inactivated FBS, penicillin (50 U/mL) and streptomycin (50 (g/mL). Human PMN from healthy donors who had not taken ASA or other medications for at least two weeks were obtained by Ficoll-Hypaque gradient centrifugation and dextran sedimentation, (Böyum A. (1968) Isolation of mononuclear cells and granulocytes from human blood. […] Viability of A549 cells and PMN was determined by their ability to exclude trypan blue and were 95±2 and 97±1%, respectively.
A microculture 3,(4,5-dimethylthiazoyl-2-yl) 2,5 (diphenyl-tetrazolium bromide) (MTT) assay, (Marshall, N. J., et al. (1995) A critical assessment of the use of microculture tetrazolium assays to measure cell growth and function. Growth Regul. 5: 69-84.), was used to examine the actions of LXs and other eicosanoids on cell proliferation. A549 cells and fibroblasts from exponential-phase maintenance cultures were counted and dispensed within replicate 96-well culture plates in 100 μl volumes of medium (˜2000 cells/well). […] Dye solution was aspirated, wells were washed once with HBSS and dye taken up by the cells was extracted in 100 μl of isopropyl alcohol:1 N HCl (96:4, v/v) and quantitated at 570 nm using a microplate reader (Molecular Devices, Menlo Park, Calif.). […]

CCCCC[C@H](O)/C=C/C=C\C=C\C=C\[C@@H](O)[C@@H](O)CCCC(=O)O [LXA4, (5S, 6R, 15S)-trihydroxy-7E, 9E, 11Z, 13E-eicosatetraenoic acid]
inhibition at 0.1 µM: 10.7%
